Reference: publication PMC5346991 (ACS Medicinal Chemistry Letters, 2017)
Values belong to the compound of their own block, whether it stands above or below them.

Key:
[1] = Mouse pharmacokinetics, plasma and brain exposure; format: in vivo, female BALB/c mice; conditions: 10 mg/kg i.p., for 4 h
[2] = test system: HepG2 cells; assay: HepG2 toxicity assay; format: cell-based; conditions: host cell toxicity
[3] = Human plasma protein binding; format: in vitro ADME; conditions: Table 1

- plasma exposure relative to the EC50 [1]: > 120 fold
SMILES: O=S(=O)(c1ccc(-c2ccc3nccc(Nc4ccncn4)c3c2)cc1)N1CCOCC1 [Compound 13j, 6-(4-(morpholinosulfonyl)phenyl)-N-(pyrimidin-4-yl)quinolin-4-amine]

SMILES: COc1ccc(Nc2ccnc3ccc(-c4ccc(S(=O)(=O)N5CCOCC5)cc4)cc23)cc1C [Compound 13k]
- HepG2 TC50 [2]: 9.0 µM

- protein binding (% free) [3]: <0.03 % free
SMILES: O=S(=O)(c1ccc(-c2ccc3nccc(Nc4ccc(OCc5cccc(F)c5)cc4)c3c2)cc1)N1CCOCC1 [Compound 3]
